Laboratory results reported in ChEMBL document CHEMBL1201862, “PubChem BioAssay data set” (2004).
Activity calls are given as the source filed them.

Legend:
[1] = target: T1, Alkaline phosphatase, tissue-nonspecific isozyme (Homo sapiens, UniProt P05186); assay: TNAP enzyme activators, dose response, selectivity assay for mouse IAP activator project, biochemical, TNAP isozyme, mouse IAP uHTS hits (AID 488880); type: functional
T1 sequence (P05186 whole entry): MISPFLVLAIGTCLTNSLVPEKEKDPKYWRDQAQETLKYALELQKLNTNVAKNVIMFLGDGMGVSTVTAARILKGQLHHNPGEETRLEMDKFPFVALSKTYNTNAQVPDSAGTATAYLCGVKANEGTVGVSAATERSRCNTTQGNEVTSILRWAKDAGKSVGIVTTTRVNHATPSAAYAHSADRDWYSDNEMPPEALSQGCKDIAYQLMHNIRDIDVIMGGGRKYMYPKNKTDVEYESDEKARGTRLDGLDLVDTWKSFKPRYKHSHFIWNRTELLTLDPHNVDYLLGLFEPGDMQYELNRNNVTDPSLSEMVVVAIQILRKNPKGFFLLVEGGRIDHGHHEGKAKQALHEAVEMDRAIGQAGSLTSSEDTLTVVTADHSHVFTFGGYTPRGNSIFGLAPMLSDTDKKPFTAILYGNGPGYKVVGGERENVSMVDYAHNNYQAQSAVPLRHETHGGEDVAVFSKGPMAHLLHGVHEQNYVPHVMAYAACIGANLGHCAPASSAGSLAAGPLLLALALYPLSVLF

[2] = target: T2, Intestinal-type alkaline phosphatase (Homo sapiens, UniProt P09923); assay: activation of human intestinal alkaline phosphatase – biochemical, dose response (AID 488873); type: functional
[3] = target: Intestinal-type alkaline phosphatase (Mus musculus, UniProt P24822); assay: mouse intestinal alkaline phosphatase activators, dose response, biochemical, luminescence, uHTS hits (AID 488783); type: functional
[4] = target: T2, Intestinal-type alkaline phosphatase; assay: human intestinal alkaline phosphatase activators, dose response, biochemical, luminescence, uHTS hits (AID 463120); type: functional
[5] = target: Heat shock protein HSP 90-alpha (Homo sapiens, UniProt P07900); type: functional, organism-based
[6] = target: T3, Hexokinase-1 (Homo sapiens, UniProt P19367); assay: hexokinase 1 activators, dose response, selectivity assay for HKDC1 activator project, biochemical (AID 504762); type: functional
T3 sequence (P19367 whole entry): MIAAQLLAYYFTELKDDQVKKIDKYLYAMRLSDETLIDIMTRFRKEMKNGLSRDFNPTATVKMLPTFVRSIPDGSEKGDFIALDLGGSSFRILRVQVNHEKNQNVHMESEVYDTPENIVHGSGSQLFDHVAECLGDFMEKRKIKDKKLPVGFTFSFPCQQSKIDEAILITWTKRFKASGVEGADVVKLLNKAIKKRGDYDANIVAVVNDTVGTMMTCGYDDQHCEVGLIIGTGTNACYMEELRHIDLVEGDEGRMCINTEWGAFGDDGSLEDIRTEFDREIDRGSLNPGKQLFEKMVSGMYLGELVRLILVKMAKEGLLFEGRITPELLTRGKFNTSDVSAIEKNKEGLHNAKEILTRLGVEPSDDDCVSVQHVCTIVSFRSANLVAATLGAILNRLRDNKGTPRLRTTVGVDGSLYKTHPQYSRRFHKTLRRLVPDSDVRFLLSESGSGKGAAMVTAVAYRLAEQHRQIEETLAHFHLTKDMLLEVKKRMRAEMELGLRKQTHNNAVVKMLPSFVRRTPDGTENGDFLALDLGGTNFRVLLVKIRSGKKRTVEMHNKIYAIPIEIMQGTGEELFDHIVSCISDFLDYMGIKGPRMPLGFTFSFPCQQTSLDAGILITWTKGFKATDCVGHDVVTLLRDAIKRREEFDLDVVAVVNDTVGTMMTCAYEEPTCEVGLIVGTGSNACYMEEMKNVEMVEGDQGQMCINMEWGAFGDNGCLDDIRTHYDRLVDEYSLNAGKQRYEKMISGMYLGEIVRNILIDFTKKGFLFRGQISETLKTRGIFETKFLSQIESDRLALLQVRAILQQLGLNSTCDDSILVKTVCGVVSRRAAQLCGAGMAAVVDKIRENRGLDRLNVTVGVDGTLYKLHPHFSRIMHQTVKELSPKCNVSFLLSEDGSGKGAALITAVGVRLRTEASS

[7] = target: T4, Hexokinase HKDC1 (Homo sapiens, UniProt Q2TB90); assay: HKDC1 hexokinase activators, dose response, biochemical, W721R variant (AID 504730); type: functional
T4 sequence (Q2TB90 whole entry): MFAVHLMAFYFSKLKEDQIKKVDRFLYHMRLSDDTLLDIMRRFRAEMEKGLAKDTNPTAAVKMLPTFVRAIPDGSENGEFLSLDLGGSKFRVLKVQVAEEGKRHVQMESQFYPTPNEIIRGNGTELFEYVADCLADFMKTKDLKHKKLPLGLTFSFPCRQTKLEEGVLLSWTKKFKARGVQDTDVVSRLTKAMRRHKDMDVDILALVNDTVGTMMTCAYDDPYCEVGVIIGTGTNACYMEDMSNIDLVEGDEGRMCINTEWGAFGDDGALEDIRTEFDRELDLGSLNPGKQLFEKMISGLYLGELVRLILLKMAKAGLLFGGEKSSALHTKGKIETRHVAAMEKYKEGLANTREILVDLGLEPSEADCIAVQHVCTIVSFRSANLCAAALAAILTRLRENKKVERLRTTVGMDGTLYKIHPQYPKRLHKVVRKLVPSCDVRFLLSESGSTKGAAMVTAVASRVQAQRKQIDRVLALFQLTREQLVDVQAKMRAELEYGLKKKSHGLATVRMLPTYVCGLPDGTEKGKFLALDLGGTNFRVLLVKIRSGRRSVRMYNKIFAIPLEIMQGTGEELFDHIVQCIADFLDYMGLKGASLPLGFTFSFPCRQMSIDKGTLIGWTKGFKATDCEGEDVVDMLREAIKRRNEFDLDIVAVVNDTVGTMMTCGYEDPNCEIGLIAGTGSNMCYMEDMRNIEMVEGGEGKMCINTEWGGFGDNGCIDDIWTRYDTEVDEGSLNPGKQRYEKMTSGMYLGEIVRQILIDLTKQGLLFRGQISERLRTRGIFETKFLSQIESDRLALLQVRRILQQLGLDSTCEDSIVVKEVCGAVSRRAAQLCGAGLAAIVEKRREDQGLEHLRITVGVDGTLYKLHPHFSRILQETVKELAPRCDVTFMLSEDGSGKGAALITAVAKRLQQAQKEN

[8] = Shn3 3'UTR reporter inhibitors, dose response, cell-based, Clone20 osteoblasts, firefly luciferase, cherry-picked (AID 624132); type: functional;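 note: firefly luciferase luminescence from reporter carrying the Shn3 3'UTR in osteoblasts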
[9] = target: Nonstructural protein 1 (Influenza A virus, UniProt Q194T2); type: functional, Influenza A virus (A/California/07/2009(H1N1))
Chain of Nonstructural protein 1 (Q194T2 whole entry): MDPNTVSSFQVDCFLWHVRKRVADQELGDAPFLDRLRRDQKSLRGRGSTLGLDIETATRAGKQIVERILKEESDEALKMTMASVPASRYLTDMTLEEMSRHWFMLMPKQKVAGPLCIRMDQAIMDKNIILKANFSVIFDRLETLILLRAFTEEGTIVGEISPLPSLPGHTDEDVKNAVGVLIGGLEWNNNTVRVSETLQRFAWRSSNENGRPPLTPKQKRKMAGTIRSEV

T2 sequence (P09923 whole entry): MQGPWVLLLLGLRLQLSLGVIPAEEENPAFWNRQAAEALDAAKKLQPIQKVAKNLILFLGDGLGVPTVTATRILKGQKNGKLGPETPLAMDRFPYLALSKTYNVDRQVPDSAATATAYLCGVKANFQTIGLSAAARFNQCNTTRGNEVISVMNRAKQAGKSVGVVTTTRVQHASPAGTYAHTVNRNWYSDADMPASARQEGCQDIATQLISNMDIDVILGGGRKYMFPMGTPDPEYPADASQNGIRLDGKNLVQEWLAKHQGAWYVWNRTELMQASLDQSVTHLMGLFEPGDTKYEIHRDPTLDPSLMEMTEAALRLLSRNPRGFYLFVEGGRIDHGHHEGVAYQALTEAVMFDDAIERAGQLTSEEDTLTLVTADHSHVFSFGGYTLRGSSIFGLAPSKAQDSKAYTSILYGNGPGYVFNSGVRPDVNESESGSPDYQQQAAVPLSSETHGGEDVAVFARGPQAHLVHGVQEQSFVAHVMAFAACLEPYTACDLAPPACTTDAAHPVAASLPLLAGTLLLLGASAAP
Chain of Intestinal-type alkaline phosphatase (Mus musculus, UniProt P24822) (P24822 whole entry): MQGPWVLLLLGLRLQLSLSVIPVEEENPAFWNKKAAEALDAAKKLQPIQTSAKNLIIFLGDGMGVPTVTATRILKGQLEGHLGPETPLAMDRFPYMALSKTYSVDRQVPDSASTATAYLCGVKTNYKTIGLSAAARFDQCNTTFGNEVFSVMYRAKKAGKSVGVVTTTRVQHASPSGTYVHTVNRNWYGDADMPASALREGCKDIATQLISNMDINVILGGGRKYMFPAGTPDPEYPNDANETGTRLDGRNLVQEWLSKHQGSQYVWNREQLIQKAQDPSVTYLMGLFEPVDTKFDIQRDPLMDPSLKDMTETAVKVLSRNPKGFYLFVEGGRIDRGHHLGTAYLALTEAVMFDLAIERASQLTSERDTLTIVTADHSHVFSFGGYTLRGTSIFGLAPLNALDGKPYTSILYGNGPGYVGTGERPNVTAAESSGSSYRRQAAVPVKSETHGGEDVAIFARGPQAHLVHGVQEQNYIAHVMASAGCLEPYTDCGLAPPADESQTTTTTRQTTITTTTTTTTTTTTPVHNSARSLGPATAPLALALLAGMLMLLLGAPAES

Cc1cc(C)c(S(=O)(=O)Nc2ccc(O)c(Sc3nnc[nH]3)c2)cc1C
EC50 [1]: 42.4 µM (active) | EC50 [2]: 22.5 µM (active) | EC50 [3]: 24.7 µM (active)

Cc1ccc(O)c(-c2cc(C(=O)NCc3ccc4c(c3)OCO4)[nH]n2)c1
EC50 [4]: 13 µM (active)

CC(N/N=C(\S)N1CCN(c2ccccn2)CC1)c1nccc2ccccc12 (centres undefined)
AC50 [5]: 2.58 µM (active) | EC50 [6]: > 80 µM (inactive) | EC50 [7]: 2.19 µM (active) | AC50 [8]: < 0.26 µM (active) | IC50 [9]: 2.43 µM (active)
